Test system: 610 metabolites from 63 biochemical pathways
Test: Targeted broad-spectrum plasma metabolomic analysis (LC-MS/MS), paired pre-infusion vs post-infusion (2-days and 6-weeks)
Type: in vivo, human
Settings: for Linear Ratio / VIP Score / Z Abs / Z Score: plasma
Description: Targeted, broad-spectrum, plasma metabolomic analysis of 610 metabolites from 63 biochemical pathways was performed by high performance liquid chromatography and tandem mass spectrometry (LC-MS/MS) on the samples collected from patients in Example 1. Venous blood was collected between the hours of 8 am and 5 pm, at least 3 hours after the last meal, into lithium-heparin vacutainer tubes (BD #367884). Plasma was separated by centrifugation at 900 g×10 minutes at room temperature within one hour of collection. The resulting fresh lithium-heparin plasma was transferred to labeled 1.2 ml or 2.0 ml externally threaded cryotubes with a minimum headspace air gap for storage at −80° C. for analysis. Samples were analyzed on an AB SCIEX QTRAP 5500 triple quadrupole mass spectrometer equipped with a Turbo V electrospray ionization (ESI) source, Shimadzu LC-20A UHPLC system, and a PAL CTC autosampler. Typically, 90 μl of plasma was thawed on ice and transferred to a 1.7 ml Eppendorf tube. Five (5.0) μl of a cocktail containing 25-35 commercial stable isotope internal standards, and 5.0 μl of 57 stable isotope internal standards that were custom-synthesized in E. coli NCM3722, Caenorhabditis elegans N2, and Komagataella phaffii (ATCC 76273; formerly known as Pichia pastoris) by metabolic labeling with 13C-glucose and 13C-bicarbonate, were added, mixed, and incubated for 10 min at 20° C. to permit small molecules and vitamins in the internal standards to associate with plasma binding proteins. Macromolecules (protein, DNA, RNA, glycans, etc.) were precipitated by extraction with 4 volumes (400 μl) of cold (−20° C.), acetonitrile:methanol (50:50) (LCMS grade, Cat #LC015-2.5 and GC230-4, Burdick & Jackson, Honeywell), vortexed vigorously, and incubated on crushed ice for 10 min, then removed by centrifugation at 16,000 g×10 min at 4° C. The supernatants containing the extracted metabolites and internal standards in the resulting 40:40:20 solvent mix of acetonitrile:methanol:water were transferred to labeled cryotubes and stored at −80° C. for LCMS/MS analysis.
LC-MS/MS analysis was performed by scheduled multiple reaction monitoring (sMRM) under Analyst v1.6.2 software control in both negative and positive mode with rapid polarity switching (50 ms). Nitrogen was used for curtain gas (set to 30), collision gas (set to high), ion source gas 1 and 2 (set to 35). The source temperature was 500° C. Spray voltage was set to −4500 V in negative mode and 5500 V in positive mode. The values for Q1 and Q3 mass-to-charge ratios (m/z), declustering potential (DP), entrance potential (EP), collision energy (CE), and collision cell exit potential (CXP) were determined and optimized for each MRM for each metabolite. Ten microliters of extract was injected by PAL CTC autosampler via a 10 μl stainless steel loop into a 250 mm×2.0 mm, 4 μm polymer based NH2 HPLC column (Asahipak NH2P-40 2E, Showa Denko America, Inc., NY) held at 25° C. for chromatographic separation. The mobile phase was solvent A: 95% water with 20 mM (NH4)2CO3 (Sigma, Fluka Cat #74415-250G-F), 5% acetonitrile, and 38 mM NH4OH (Sigma, Fluka Cat #17837-100ML), final pH 9.75; solvent B: 100% acetonitrile. Separation was achieved using the following gradient: 0-3.5 min: 95% B, 3.6-8 min: 85% B, 8.1-13 min: 75% B, 13.5-35 min: 0% B, 36-46 min: 95% B, 46.1 min: end. The flow rate was 200 μl/min. Pump pressures ranged from 920-2600 psi over the course of the gradient. All the samples were kept at 4° C. during analysis. The chromatographic peaks were identified using MultiQuant (v3.0, Sciex), confirmed by manual inspection, and the peak areas integrated. […]

[1] = 1-Carbon, Folate, Formate, Glycine, Serine Metabolism, 6-weeks
[2] = 1-Pyrroline-5-carboxylic acid, 6-weeks
[3] = 2-Hydroxyisocaproic acid, 6-weeks
[4] = 2-Hydroxyisovaleric acid, 6-weeks
[5] = 3-Hydroxy-cis-5-tetradecenoylcarnitine, 6-weeks
[6] = 4-Hydroxyphenyllactic acid, 6-weeks
[7] = Amino Acid Metabolism (not otherwise covered), 6-weeks
[8] = Amino-Sugar, Galactose, & Non-Glucose Metabolism, 6-weeks
[9] = Amino-Sugar, Galactose, & Non-Glucose, 2-days
[10] = Bioamines and Neurotransmitter Metabolism, 2-days

Cc1ccc(C(=O)Nc2ccc(S(=O)(=O)O)c3cc(S(=O)(=O)O)cc(S(=O)(=O)O)c23)cc1NC(=O)c1cccc(NC(=O)Nc2cccc(C(=O)Nc3cc(C(=O)Nc4ccc(S(=O)(=O)O)c5cc(S(=O)(=O)O)cc(S(=O)(=O)O)c45)ccc3C)c2)c1 [Suramin, suramin]
Decreased [1]: 0 | Fold Enrichment (Obs/Exp) [1]: 3.6 | Fraction of Impact (VIP Score) Explained (% of 94.6) [1]: 4% | Impact (Sum VIP Score) [1]: 4.0 | Increased [1]: 2 | Observed Hits in the Top 48 Metabolites [1]: 2 | Linear Ratio (1-Methyladenine, 6-weeks): 2.287 | VIP Score (1-Methyladenine, 6-weeks): 2.459 | Z Abs (1-Methyladenine, 6-weeks): 2.259 | Z Score (1-Methyladenine, 6-weeks): 2.259 | Linear Ratio [2]: 1.299 | VIP Score [2]: 2.358 | Z Abs [2]: 1.922 | Z Score [2]: 1.922 | Linear Ratio [3]: 1.306 | VIP Score [3]: 1.622 | Z Abs [3]: 0.997 | Z Score [3]: 0.997 | Linear Ratio [4]: 1.234 | VIP Score [4]: 1.988 | Z Abs [4]: 1.146 | Z Score [4]: 1.146 | Linear Ratio (2-Keto-L-gluconate, 6-weeks): 1.239 | VIP Score (2-Keto-L-gluconate, 6-weeks): 2.686 | Z Abs (2-Keto-L-gluconate, 6-weeks): 2.365 | Z Score (2-Keto-L-gluconate, 6-weeks): 2.365 | biochemical pathways changed by suramin (2-days after the infusion): 28 | Linear Ratio [5]: 0.734 | VIP Score [5]: 1.612 | Z Abs [5]: 1.056 | Z Score [5]: −1.056 | Linear Ratio [6]: 1.294 | VIP Score [6]: 1.945 | Z Abs [6]: 1.172 | Z Score [6]: 1.172 | pathways changed at 2-days that remained changed (6-week time point): 79% | metabolites significantly changed by suramin (total) (6-weeks): 48 | Linear Ratio (Alanine, 6-weeks): 1.322 | VIP Score (Alanine, 6-weeks): 2.456 | Z Abs (Alanine, 6-weeks): 1.687 | Z Score (Alanine, 6-weeks): 1.687 | Linear Ratio (Allantoin, 6-weeks): 1.798 | VIP Score (Allantoin, 6-weeks): 1.882 | Z Abs (Allantoin, 6-weeks): 1.068 | Z Score (Allantoin, 6-weeks): 1.068 | Decreased [7]: 0 | Fold Enrichment (Obs/Exp) [7]: 4.5 | Fraction of Impact (VIP Score) Explained (% of 94.6) [7]: 5% | Impact (Sum VIP Score) [7]: 4.3 | Increased [7]: 2 | Observed Hits in the Top 48 Metabolites [7]: 2 | Decreased (Amino Acid Metabolism, 2-days): 0 | Fold Enrichment (Obs/Exp) (Amino Acid Metabolism, 2-days): 1.8 | Fraction of Impact (VIP Score) Explained (% of 119.7) (Amino Acid Metabolism, 2-days): 1% | Impact (Sum VIP Score) (Amino Acid Metabolism, 2-days): 1.8 | Increased (Amino Acid Metabolism, 2-days): 1 | Observed Hits in the Top 61 Metabolites (Amino Acid Metabolism, 2-days): 1 | Decreased [8]: 0 | Fold Enrichment (Obs/Exp) [8]: 1.8 | Fraction of Impact (VIP Score) Explained (% of 94.6) [8]: 2% | Impact (Sum VIP Score) [8]: 1.9 | Increased [8]: 1 | Observed Hits in the Top 48 Metabolites [8]: 1 | Decreased [9]: 0 | Fold Enrichment (Obs/Exp) [9]: 1.4 | Fraction of Impact (VIP Score) Explained (% of 119.7) [9]: 1% | Impact (Sum VIP Score) [9]: 1.6 | Increased [9]: 1 | Observed Hits in the Top 61 Metabolites [9]: 1 | Linear Ratio (Azelaic acid, 6-weeks): 1.120 | VIP Score (Azelaic acid, 6-weeks): 2.151 | Z Abs (Azelaic acid, 6-weeks): 2.558 | Z Score (Azelaic acid, 6-weeks): 2.558 | Decreased (Bile Acid Metabolism, 6-weeks): 0 | Fold Enrichment (Obs/Exp) (Bile Acid Metabolism, 6-weeks): 4.5 | Fraction of Impact (VIP Score) Explained (% of 94.6) (Bile Acid Metabolism, 6-weeks): 6% | Impact (Sum VIP Score) (Bile Acid Metabolism, 6-weeks): 5.7 | Increased (Bile Acid Metabolism, 6-weeks): 3 | Observed Hits in the Top 48 Metabolites (Bile Acid Metabolism, 6-weeks): 3 | Decreased (Bile Salt Metabolism, 2-days): 0 | Fold Enrichment (Obs/Exp) (Bile Salt Metabolism, 2-days): 4.7 | Fraction of Impact (VIP Score) Explained (% of 119.7) (Bile Salt Metabolism, 2-days): 10% | Impact (Sum VIP Score) (Bile Salt Metabolism, 2-days): 11.9 | Increased (Bile Salt Metabolism, 2-days): 4 | Observed Hits in the Top 61 Metabolites (Bile Salt Metabolism, 2-days): 4 | Decreased [10]: 2 | Fold Enrichment (Obs/Exp) [10]: 1.6 | Fraction of Impact (VIP Score) Explained (% of 119.7) [10]: 3% | Impact (Sum VIP Score) [10]: 3.3 | Increased [10]: 0 | Observed Hits in the Top 61 Metabolites [10]: 2 | Decreased (Branch Chain Amino Acid Metabolism, 2-days): 0
